Experimental data from ChEMBL document CHEMBL1201862, “PubChem BioAssay data set” (2004).
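Dose response: 5 concentrations. Exposure: 48 h. Format: 96-well plates. Endpoint: linear interpolation; highest concentration if not reached. GI50: concentration for 50% inhibition of growth.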 Activity calls are given as the source filed them. Rule as the data show it: active = GI50 up to about 1.1 µM and inactive = higher.

Columns and labels:
Test in all cases: NCI tumour cell line growth inhibition, 48 h
[1] = system: ACHN
[2] = system: HCT-15
[3] = system: HCT-116
[4] = system: OVCAR-3
[5] = system: K562
[6] = system: UO-31
[7] = system: UACC-257
[8] = system: SK-MEL-2
[9] = system: SF-268
[10] = system: MCF7
[11] = system: OVCAR-5
[12] = system: MDA-N
[13] = system: LOX IMVI
[14] = system: CAKI-1
[15] = system: SF-295
[16] = system: CCRF-CEM
[17] = system: T47D
[18] = system: UACC-62
[19] = system: RXF 393
[20] = system: Malme-3M

Row | Structure (SMILES) | GI50 [1] | GI50 [2] [µM] | GI50 [3] | GI50 [4] | GI50 [5] | GI50 [6] | GI50 [7] | GI50 [8] | GI50 [9] | GI50 [10] | GI50 [11] | GI50 [12] | GI50 [13] | GI50 [14] | GI50 [15] | GI50 [16] | GI50 [17] | GI50 [18] | GI50 [19] | GI50 [20]
1 | O=c1c(-c2ccc3c(c2)OCO3)coc2c3c(ccc12)OCO3 | 18.5 µM (inactive) | 28.4 | 33 µM (inactive) | 28.5 µM (inactive) | > 100 µM (inactive) | 43.7 µM (inactive) | 53.1 µM (inactive) | 95.9 µM (inactive) | 19.1 µM (inactive) | 15.9 µM (inactive) | 56.6 µM (inactive) | 93.5 µM (inactive) | 45.2 µM (inactive) | 63.7 µM (inactive) | 18 µM (inactive) | > 100 µM (inactive) | 37.8 µM (inactive) | 76.7 µM (inactive) |  | 
2 | COC(=O)C12C3C4(C(=O)OC)C1C1(C(=O)OC)C2C3(C(=O)OC)C41C(=O)N(C(C)C)C(C)C (stereo not drawn) | > 100 µM (inactive) | > 100 | > 100 µM (inactive) | > 100 µM (inactive) | > 100 µM (inactive) | > 100 µM (inactive) | > 100 µM (inactive) | > 100 µM (inactive) | > 100 µM (inactive) | > 100 µM (inactive) | > 100 µM (inactive) | > 100 µM (inactive) | > 100 µM (inactive) | > 100 µM (inactive) | > 100 µM (inactive) | > 100 µM (inactive) | > 100 µM (inactive) | > 100 µM (inactive) | > 100 µM (inactive) | 
3 | OC1CSCCCSCCSCCCSC1 | > 100 µM (inactive) | > 100 | > 100 µM (inactive) | > 100 µM (inactive) | > 100 µM (inactive) | > 100 µM (inactive) | > 100 µM (inactive) | > 100 µM (inactive) | > 100 µM (inactive) | > 100 µM (inactive) | > 100 µM (inactive) | > 100 µM (inactive) | > 100 µM (inactive) | > 100 µM (inactive) | > 100 µM (inactive) |  | > 100 µM (inactive) | > 100 µM (inactive) | > 100 µM (inactive) | 
4 | Nc1nc(N)c2c(n1)CCC(S(=O)(=O)c1ccc3ccccc3c1)C2 (stereo not drawn) | 3.85 µM (inactive) | 2.38 | 11.6 µM (inactive) | 10.9 µM (inactive) |  | 5.45 µM (inactive) | 12.5 µM (inactive) |  | 11 µM (inactive) | 10.1 µM (inactive) | 87.7 µM (inactive) | 0.766 µM (active) | 0.706 µM (active) | 6 µM (inactive) | 1.66 µM (inactive) | 5.2 µM (inactive) | 14.5 µM (inactive) |  |  | 2.24 µM (inactive)
5 | Cc1cn(CCCCCOC(=O)NC(CCCNC(=N)N)C(=O)O)c(=O)[nH]c1=O (stereo not drawn) | 72.3 µM (inactive) | 28.1 | 37.6 µM (inactive) | 50.9 µM (inactive) | 16.1 µM (inactive) | > 100 µM (inactive) | > 100 µM (inactive) | > 100 µM (inactive) | > 100 µM (inactive) | 54.7 µM (inactive) | > 100 µM (inactive) | 6.9 µM (inactive) | 53.6 µM (inactive) | 37.1 µM (inactive) | 28.2 µM (inactive) | 37.2 µM (inactive) | > 100 µM (inactive) | 26.7 µM (inactive) | 33.3 µM (inactive) | 
6 | O=C(O)CCC(=O)c1ccc2c(c1)C(C(=O)O)CC2 (stereo not drawn) | > 100 µM (inactive) | > 100 | 0.0935 µM (active) | > 100 µM (inactive) | > 100 µM (inactive) | > 100 µM (inactive) | > 100 µM (inactive) | > 100 µM (inactive) | > 100 µM (inactive) | > 100 µM (inactive) | > 100 µM (inactive) | > 100 µM (inactive) | > 100 µM (inactive) |  | > 100 µM (inactive) |  | > 100 µM (inactive) | > 100 µM (inactive) | 0.286 µM (active) | > 100 µM (inactive)
7 | CC(=O)O.CN1CCN(CN2C(=O)C3C4C=CC(C3C2=O)C2C3C(=O)N(CN5CCN(C)CC5)C(=O)C3C42)CC1 (stereo not drawn) | 27.6 µM (inactive) | 18.9 | 16.6 µM (inactive) | 24.3 µM (inactive) | 22.2 µM (inactive) | 25.2 µM (inactive) |  |  | 27.5 µM (inactive) | 32.3 µM (inactive) | 23.9 µM (inactive) | 17.8 µM (inactive) | 18.2 µM (inactive) |  |  | 18.5 µM (inactive) | 30 µM (inactive) | 20.7 µM (inactive) | 17.7 µM (inactive) | 18.3 µM (inactive)
8 | CC1CCN(c2nnc(Cl)cc2C(=O)c2ccccc2)CC1 | 49.9 µM (inactive) | 35.6 | 29.6 µM (inactive) | 22.4 µM (inactive) | 53 µM (inactive) | 23.1 µM (inactive) | 18.7 µM (inactive) | 18.5 µM (inactive) | 1.67 µM (inactive) | 19.4 µM (inactive) | 77.4 µM (inactive) | 21.7 µM (inactive) | 29.4 µM (inactive) | 17.9 µM (inactive) | 24.7 µM (inactive) | 13.5 µM (inactive) | 31.5 µM (inactive) | 26.8 µM (inactive) | 16.9 µM (inactive) | 
